Source: the NIST ThermoML archive (doi:10.1016/j.fluid.2010.01.002)

Test: mn = molality of the nth substance listed, in mol/kg
Conditions: 101 kPa, Liquid, Vibrating tube method

COS(=O)(=O)[O-].Cn1cc[n+](C)c1 [1,3-dimethylimidazolium methylsulfate] + O
mass density [kg/m3]
Conditions | 298.15 K | 308.15 K | 318.15 K | 328.15 K
m1 = 0.0095 | 997.56 | 994.57 | 990.75 | 986.12
m1 = 0.018 | 998.03 | 995.02 | 991.2 | 986.56
m1 = 0.0236 | 998.32 | 995.31 | 991.48 | 986.84
m1 = 0.0316 | 998.76 | 995.73 | 991.89 | 987.25
m1 = 0.0414 | 999.29 | 996.24 | 992.39 | 987.74
m1 = 0.0611 | 1000.34 | 997.25 | 993.38 | 988.72
m1 = 0.0788 | 1001.28 | 998.16 | 994.27 | 989.59
m1 = 0.0914 | 1001.94 | 998.8 | 994.9 | 990.2
m1 = 0.1165 | 1003.24 | 1000.06 | 996.14 | 991.43
m1 = 0.1441 | 1004.65 | 1001.43 | 997.49 | 992.77
m1 = 0.1816 | 1006.53 | 1003.27 | 999.3 | 994.58
m1 = 0.2172 | 1008.25 | 1004.99 | 1001 | 996.25
m1 = 0.2724 | 1010.92 | 1007.59 | 1003.6 | 998.8
m1 = 0.3964 | 1016.79 | 1013.25 | 1009.26 | 1004.4
m1 = 0.4557 | 1019.55 | 1015.89 | 1011.88 | 1006.99
m1 = 0.5756 | 1024.98 | 1021.08 | 1017.04 | 1012.19
m1 = 0.7108 | 1030.77 | 1026.7 | 1022.63 | 1017.83
m1 = 1.826 | 1071.65 | 1065.12 | 1061.7 | 1057
